Results as given in patent publication US20230141034A1, “ADAMANTANE-1-CARBONYL THIOUREA, AS P2X RECEPTOR ANTAGONIST” (COMSATS UNIVERSITY ISLAMABAD, priority 2021, published 2023).
Like-named read-outs stand apart in the source and are kept apart here.

What was measured:
[1] = MTT cytotoxicity assay, HEK-293 cell line; format: cell-based; details: human, HEK-293 cells, final concentration of 50 μM
Protocol: (§1) Cellular safety profiling of adamantane thioureas were done through MTT assay. All compounds were analyzed for toxicity at final concentration of 50 μM. […] Toxicity was determined against two cancer cell lines including human 1321N1 Astrocytoma cell line, HeLa cell line and a normal HEK-293 cell line.
(§2) c. Cell Viability Assay (MTT Assay)
(§3) After 24 h of incubation at 37° C. in CO2 incubator, culture media will be replaced with serum-free media along with test compounds and re-incubate. After 24 h, media will be removed and add 100 μL of MTT reagent (0.5-5 mg/mL) and will be incubated for a further 4 h, at 37° C. Absorbance will be measured at 570 and 630 nm to calculate cell viability.

h-P2X4 = molecular target: T1, h-P2X4 (Homo sapiens, UniProt Q99571); assay: Ca2+ flux assay h-P2X4; details: for inhibition at 50 µM: read-out: h-P2X4 % Inhibition
T1 sequence (Q99571 1-388): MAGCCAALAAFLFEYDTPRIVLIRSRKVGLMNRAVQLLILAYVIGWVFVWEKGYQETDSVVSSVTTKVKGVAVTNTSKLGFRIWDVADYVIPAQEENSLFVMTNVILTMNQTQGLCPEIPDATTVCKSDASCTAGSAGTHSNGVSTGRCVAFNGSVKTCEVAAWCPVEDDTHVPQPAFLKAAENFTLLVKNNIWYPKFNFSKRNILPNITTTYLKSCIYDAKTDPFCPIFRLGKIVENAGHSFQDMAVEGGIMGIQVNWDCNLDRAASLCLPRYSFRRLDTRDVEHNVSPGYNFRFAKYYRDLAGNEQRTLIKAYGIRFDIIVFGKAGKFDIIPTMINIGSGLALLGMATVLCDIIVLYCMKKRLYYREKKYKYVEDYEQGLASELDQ
Protocol: (§4) Compounds were initially analyzed at a final concentration of about 50 μM and percentage of inhibition was calculated.
(§5) Calcium Mobilization Assay to Measure P2X Receptors Response Cell Culture: P2X receptors functions can be analyzed from ATP-induced increase in cytosolic Ca^2+ concentration. Two Ca^2+ chelating dyes, Fura-2 AM and Fluo-4 AM can be used to determine the intracellular Ca^2+ concentration through a fluorescent imaging micro-titer plate reader (BMG Labtech: FLUOstar Galaxy®). Non-transfected human 1321N1 astrocytoma cells, as well as P2X receptors transfected human 1321N1 astrocytoma cells will be cultured in T-75 cm^2 cell culture flask having appropriate cell culture growth media; Dulbecco's Modified Eagle's medium (DMEM) supplemented with 10% fetal bovine serum (FBS), 75 μg/mL of Hygromycin B or human P2X receptors transfected cell lines and 1% pen-strep (antibiotics). Cells will be incubated at 37° C. in 5% CO2 incubator until 80 to 90% cell confluency will be achieved. Cells will be maintained in an exponential growth phase throughout the experiment and closely monitored for contamination.
Measurement of Ca^2+ Flux
(§6) When 1321N1 cells will reach 80 to 90% of confluency, cells will be harvested from T-75 cm^2 flask by trypsinization. After washing the cells with phosphate buffer saline (PBS), cells will be seeded at a density of 20,000 cells/well in black, clear bottom, poly-D-lysine coated 96 well plate. After 16 to 24 h, cell culture media will be removed and add Hank's balanced salt solution (HBSS) containing 3 μM Ca^2+ chelating dyes Fura-2 AM or Fluo-4 AM. After 1 h of incubation at 23° C., the loading dye solution will be removed, and added seven to eight dilutions of test compounds in triplicate format. ATP (at a concentration value of EC80) or buffer will be added and measured the excitation and emission at 340/520 nm and 380/520 nm through FLUOStar Galaxy®. Assay volume for the experiment will be 200 μL. IC50 and EC50 values will be calculated by PRISM 5.0 (GrapgPad, San Diego, Calif., USA) through non-linear regression analysis.

h-P2X7 = molecular target: T2, h-P2X7 (Homo sapiens, UniProt Q99572); assay: Ca2+ flux assay h-P2X7; details: for inhibition at 50 µM: read-out: h-P2X7 % Inhibition
T2 sequence (Q99572 1-595): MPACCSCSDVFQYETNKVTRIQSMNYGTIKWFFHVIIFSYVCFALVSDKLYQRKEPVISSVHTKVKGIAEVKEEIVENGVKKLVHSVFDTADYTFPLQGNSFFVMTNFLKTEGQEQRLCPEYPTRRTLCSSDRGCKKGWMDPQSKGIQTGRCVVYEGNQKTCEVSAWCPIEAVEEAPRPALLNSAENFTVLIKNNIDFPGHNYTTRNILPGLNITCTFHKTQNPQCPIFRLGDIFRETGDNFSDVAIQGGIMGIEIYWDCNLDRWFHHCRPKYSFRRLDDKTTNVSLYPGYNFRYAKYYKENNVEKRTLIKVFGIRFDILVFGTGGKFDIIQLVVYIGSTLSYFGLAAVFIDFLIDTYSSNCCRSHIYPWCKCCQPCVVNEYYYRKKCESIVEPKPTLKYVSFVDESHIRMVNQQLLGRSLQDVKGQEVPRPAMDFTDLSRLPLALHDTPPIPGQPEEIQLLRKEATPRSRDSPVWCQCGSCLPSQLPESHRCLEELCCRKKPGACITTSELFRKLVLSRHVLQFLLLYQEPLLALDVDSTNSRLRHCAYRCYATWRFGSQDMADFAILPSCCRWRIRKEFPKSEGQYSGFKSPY
Protocol: as §4, §5
Measurement of Ca^2+ Flux
as §6

h-P2X2 = molecular target: T3, h-P2X2 (Homo sapiens, UniProt Q9UBL9); assay: Ca2+ flux assay h-P2X2; details: for inhibition at 50 µM: read-out: h-P2X2 % Inhibition; for IC50: read-out: h-P2X2 IC50 ± SEM, Ca2+ flux, n = 3
T3 sequence (Q9UBL9 1-471): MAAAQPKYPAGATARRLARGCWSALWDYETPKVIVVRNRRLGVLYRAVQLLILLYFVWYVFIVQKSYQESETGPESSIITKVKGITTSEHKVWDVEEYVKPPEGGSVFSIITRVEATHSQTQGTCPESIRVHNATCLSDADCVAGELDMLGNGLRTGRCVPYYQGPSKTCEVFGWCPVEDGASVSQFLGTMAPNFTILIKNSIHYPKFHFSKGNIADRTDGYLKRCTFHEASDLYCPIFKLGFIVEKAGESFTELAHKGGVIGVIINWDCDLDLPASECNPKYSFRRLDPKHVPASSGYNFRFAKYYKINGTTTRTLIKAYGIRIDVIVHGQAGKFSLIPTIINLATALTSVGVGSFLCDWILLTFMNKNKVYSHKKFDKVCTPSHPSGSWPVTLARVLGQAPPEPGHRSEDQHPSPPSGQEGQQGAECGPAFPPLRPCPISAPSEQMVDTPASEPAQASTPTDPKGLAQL
Protocol: as §4, §5
Measurement of Ca^2+ Flux
as §6

[2] = MTT cytotoxicity assay, human 1321N1 astrocytoma cell line; format: cell-based; details: human, 1321N1 astrocytoma cells, final concentration of 50 μM
Protocol: as §1, §2, §3

[3] = MTT cytotoxicity assay, HeLa cell line; format: cell-based; details: human, HeLa cells, final concentration of 50 μM
Protocol: as §1, §2, §3

h-P2X5 = h-P2X5 (Homo sapiens, UniProt Q93086); assay: Ca2+ flux assay h-P2X5; details: for inhibition at 50 µM: read-out: h-P2X5 % Inhibition
Protocol: as §4, §5
Measurement of Ca^2+ Flux
as §6

[4] = read-out: h-P2X4 IC50 ± SEM, Ca2+ flux, n = 3
[5] = read-out: h-P2X7 IC50 ± SEM, Ca2+ flux, n = 3

h-P2X5, sequence (Q93086 whole entry): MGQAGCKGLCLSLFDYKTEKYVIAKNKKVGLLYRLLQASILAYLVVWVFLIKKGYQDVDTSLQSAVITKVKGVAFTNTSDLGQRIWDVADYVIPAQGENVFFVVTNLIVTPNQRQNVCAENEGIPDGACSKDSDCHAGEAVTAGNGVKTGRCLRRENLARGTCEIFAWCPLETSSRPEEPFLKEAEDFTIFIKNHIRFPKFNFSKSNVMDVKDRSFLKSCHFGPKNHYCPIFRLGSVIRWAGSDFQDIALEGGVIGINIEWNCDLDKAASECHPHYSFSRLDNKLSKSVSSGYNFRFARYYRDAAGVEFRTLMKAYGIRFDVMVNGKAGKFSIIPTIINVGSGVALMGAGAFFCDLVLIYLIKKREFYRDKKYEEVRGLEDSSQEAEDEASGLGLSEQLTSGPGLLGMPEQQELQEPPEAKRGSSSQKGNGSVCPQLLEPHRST

SMILES | IC50 (h-P2X4; [4]) | IC50 (h-P2X7; [5]) | inhibition at 50 µM (h-P2X2) | inhibition at 50 µM (h-P2X5) | inhibition at 50 µM (h-P2X4) | inhibition at 50 µM (h-P2X7) | IC50 (h-P2X2) | IC50 (h-P2X5) | IC50 (h-P2X4) | IC50 (h-P2X7) | cytotoxicity at 24 h, 50 µM [1] | cytotoxicity at 24 h, 50 µM [2] | cytotoxicity at 24 h, 50 µM [3] | IC50 (h-P2X5; read-out: h-P2X5 IC50 ± SEM, Ca2+ flux, n = 3)
NS(=O)(=O)c1cccc(NC(=S)NC(=O)C23CC4CC(CC(C4)C2)C3)c1 [Ig, N-((3-sulfamoylphenyl)carbamothioyl)adamantane-1-carboxamide] | – | – | 18.1% | 42.5% | – | – | – | – | 4.19 ± 0.23 µM | 0.829 ± 0.12 µM | 3.77% | 12.9% | 12.5% | –
COc1ccc(NC(=S)NC(=O)C23CC4CC(CC(C4)C2)C3)cc1 [Ij, N-((4-methoxyphenyl)carbamothioyl)adamantane-1-carboxamide] | – | – | – | 44.5% | 44.9% | 29.4% | 5.24 ± 0.32 µM | – | – | – | 10.6% | 4.56% | 8.01% | –
COc1ccc(NC(=S)NC(=O)C23CC4CC(CC(C4)C2)C3)cc1OC [Ik, N-((3,4-dimethoxyphenyl)carbamothioyl)adamantane-1-carboxamide] | 3.46 ± 0.4 µM | 4.9 ± 1.04 µM | – | – | – | – | 0.732 ± 0.01 µM | 1.48 ± 0.23 µM | – | – | 7.2% | 19.4% | 14.3% | –
Cc1ccc(NC(=S)NC(=O)C23CC4CC(CC(C4)C2)C3)c(Br)c1 [Im, N-((2-bromo-4-methylphenyl)carbamothioyl)adamantane-1-carboxamide] | 1.56 ± 0.21 µM | 3.71 ± 0.78 µM | – | – | – | – | 4.85 ± 0.32 µM | 6.04 ± 1.2 µM | – | – | 18.9% | 7.29% | 15.4% | –
Cc1cc(Br)ccc1NC(=S)NC(=O)C12CC3CC(CC(C3)C1)C2 [In, N-((4-bromo-2-methylphenyl)carbamothioyl)adamantane-1-carboxamide] | – | – | 22.7% | 27.1% | 34.9% | 18.8% | – | – | – | – | 14% | 14.3% | 4.1% | –
O=C(NC(=S)Nc1cc(Br)ccc1Br)C12CC3CC(CC(C3)C1)C2 [Iq, N-((2,5-dibromophenyl)carbamothioyl)adamantane-1-carboxamide] | – | – | 41.1% | 16.2% | – | 11.2% | – | – | 5.73 ± 0.42 µM | – | 14.8% | 21.2% | 20.7% | –
CN(C)CCCNC(=S)NC(=O)C12CC3CC(CC(C3)C1)C2 [Ir, N-((3-(dimethylamino)propyl)carbamothioyl)adamantane-1-carboxamide] | – | – | 2.15% | 11.2% | 0% | 5.01% | – | – | – | – | 5.16% | 10.1% | 8.14% | –
Cc1ccc(C(=O)Nc2ccc(S(=O)(=O)O)c3cc(S(=O)(=O)O)cc(S(=O)(=O)O)c23)cc1NC(=O)c1cccc(NC(=O)Nc2cccc(C(=O)Nc3cc(C(=O)Nc4ccc(S(=O)(=O)O)c5cc(S(=O)(=O)O)cc(S(=O)(=O)O)c45)ccc3C)c2)c1 [Suramin, reference compound] | 5.64 ± 0.04 µM | – | – | – | – | – | 13.45 ± 0.11 µM | – | – | – | 48% | 18.6% | 21.7% | 16.1 ± 0.5 µM

Now from value to molecule, other results behind:

IC50 (h-P2X4; [4]) | IC50 (h-P2X7; [5]) | inhibition at 50 µM (h-P2X2) | inhibition at 50 µM (h-P2X5) | inhibition at 50 µM (h-P2X4) | inhibition at 50 µM (h-P2X7) | IC50 (h-P2X2) | IC50 (h-P2X5) | IC50 (h-P2X4) | IC50 (h-P2X7) | SMILES | cytotoxicity at 24 h, 50 µM [1] | cytotoxicity at 24 h, 50 µM [2] | cytotoxicity at 24 h, 50 µM [3] | IC50 (h-P2X5; read-out: h-P2X5 IC50 ± SEM, Ca2+ flux, n = 3)
1.08 ± 0.02 µM | 1.47 ± 0.09 µM | 32.6% | 40.6% | – | – | – | – | – | – | O=C(NC(=S)Nc1ccccc1O)C12CC3CC(CC(C3)C1)C2 [Ia, N-((2-hydroxyphenyl)carbamothioyl)adamantane-1-carboxamide] | 26.6% | 10.3% | 13.1% | –
– | – | 32.6% | 43.6% | 36.7% | 19.1% | – | – | – | – | O=C(NC(=S)Nc1cccc(O)c1)C12CC3CC(CC(C3)C1)C2 [Ib, N-((3-hydroxyphenyl)carbamothioyl)adamantane-1-carboxamide] | 6.95% | 5.67% | 11% | –
– | 1.4 ± 0.18 µM | 37.9% | 33.2% | 32.4% | – | – | – | – | – | O=C(NC(=S)Nc1ccc(O)cc1)C12CC3CC(CC(C3)C1)C2 [Ic, N-((4-hydroxyphenyl)carbamothioyl)adamantane-1-carboxamide] | 3.02% | 19% | 8.66% | –
1.28 ± 0.11 µM | – | – | – | – | – | 1.06 ± 0.05 µM | 3.4 ± 0.4 µM | – | – | O=C(NC(=S)Nc1cc(Cl)c(O)c(Cl)c1)C12CC3CC(CC(C3)C1)C2 [Id, N-((3,5-dichloro-4-hydroxyphenyl)carbamothioyl)adamantane-1-carboxamide] | 1.06% | 6.18% | 5.4% | –
– | – | 30.5% | 20.4% | – | – | – | – | 4.53 ± 0.39 µM | 4.02 ± 0.64 µM | O=C(NC(=S)Nc1cc(Br)c(O)c(C(F)(F)F)c1)C12CC3CC(CC(C3)C1)C2 [Ie, N-((3-bromo-4-hydroxy-5-(trifluoromethyl)phenyl)carbamothioyl)adamantane-1-carboxamide] | 6.85% | 5.37% | 11.9% | –
1.29 ± 0.09 µM | 2.53 ± 0.72 µM | – | 32.1% | – | – | 4.58 ± 0.21 µM | – | – | – | O=C(NC(=S)Nc1cc([N+](=O)[O-])ccc1Cl)C12CC3CC(CC(C3)C1)C2 [Ih, N-((2-chloro-5-nitrophenyl)carbamothioyl)adamantane-1-carboxamide] | 24.6% | 20.5% | 8.66% | –
– | – | – | 44% | 38% | 15.1% | 2.31 ± 0.31 µM | – | – | – | COc1cccc(NC(=S)NC(=O)C23CC4CC(CC(C4)C2)C3)c1 [Ii, N-((3-methoxyphenyl)carbamothioyl)adamantane-1-carboxamide] | 20.7% | 6.53% | 18.1% | –
– | 8.8 ± 1.12 µM | 36% | 47.7% | 46.8% | – | – | – | – | – | O=C(NC(=S)Nc1ccc(Br)cc1)C12CC3CC(CC(C3)C1)C2 [Il, N-((4-bromophenyl)carbamothioyl)adamantane-1-carboxamide] | 18.7% | 15.4% | 7.19% | –
